For one compound, cell viability results are on record in patent EP2253308A1, “Pharmaceutical composition comprising microbubbles for targeted tumor therapy” (Ludwig-Maximilians-Universität München, priority 2009, dated 2010).

The test system of this data set is 293/KDR human kidney carcinoma tissue cultures. The data set is described as follows: In vitro anti-proliferative efficacy, cell viability assay (formazan absorption) with or without ultrasound. The class given is cell-based. To be noted: effect not affected by the application of ultrasound; 24 hours incubation; % of untreated cells. As to the method: The anti-proliferative efficacy of doxorubicin-loaded microbubbles according to Example 2 was determined in an in vitro experiment using 293/KDR human kidney carcinoma tissue cultures.
First, the cells were cultivated in 10% fetal calf serum activated Dulbecco's Modified Eagle Medium. Prior to the experiment, the cells were brought in suspension by trypsin/EDTA solution. A cell suspension of 200 µl containing about 6 x 10^4 cells was transferred into each well of a 96-well plate (Greiner Bio-One GmbH, Germany) and subsequently admixed with an aqueous solution of either doxorubicin, doxorubicin-loaded liposomes, or doxorubicin-loaded microbubbles (n = 10). The corresponding blank samples were prepared without doxorubicin (see Figure 3). Ultrasound with a frequency of 1 MHz, an intensity of 2 W/cm^2, and a duty cycle of 50% was applied directly onto each well using Sonitron 2000 (Rich-Mar Inc., USA). In order to avoid the presence of standing waves, the well plate was under laid with an absorbing gel pad.
After 24 hours of incubation the cell metabolic activity was measured using a cell viability assay. […] Purple formazan produced by viable cells could be measured by its UV/Vis absorption using FluostarOmega plate reader (BMG Labtech GmbH, Offenburg, Germany) at a wavelength of 590 nm (measurement) and a wavelength of 630 nm (reference). […]

For the compound `COc1cccc2c1C(=O)c1c(O)c3c(c(O)c1C2=O)C[C@@](O)(C(=O)CO)C[C@@H]3O[C@H]1C[C@H](N)[C@H](O)[C@H](C)O1` [free doxorubicin], the cell viability is 62-64%.
